# Experimental data as given in patent publication US20110003382A1, “USE OF CORTICOSTERONE FOR INCREASING EGG ANTIBODY” (WISCONSIN ALUMNI RESEARCH FOUNDATION, priority 2009, published 2011).
# How the values were obtained:
# [1] = system: Single Comb White Leghorn hens; assay: Anti-PLA2 antibody titer in serum of immunized hens by ELISA; format: in vivo; settings: weeks 2 to 3 after primary immunization
# Description: In all Examples, Single Comb White Leghorn hens (SCWL) used were transported as pullets (18- to 22-weeks of age) from S&R Farms (Whitewater, Wis.) to University of Wisconsin—Madison Poultry Research Laboratory. Hens were individually housed in cages with raised bottom floors for at least four weeks before being assigned to an Example, and were 26- to 60-weeks of age at the beginning of experiments. Hens were fed, ad libitum, a standard corn-soybean meal based laying hen diet formulated to meet nutritional requirements. Housing was maintained under an automated lighting schedule with 16:8-h light-dark cycle. All procedures involving animals were approved by Animal Care Committee at University of Wisconsin, Madison.
# The antigen selected for comparing the antibody response of hens was a 13 kDa soluble protein antigen, phospholipase A2 (PLA2) purified from porcine pancreas (Novozyme, Bagsvaerd, Denmark; greater than 90% purity based on SDS-PAGE). PLA2 was used because of its commercial relevance, and its previous use as a model antigen for studying hen antibody response (Trott, et al., 2008, “Additions of killed whole cell bacteria preparations to Freund complete adjuvant alter laying hen antibody response to soluble protein antigen,” Poult. Sci., 87(5):912-917). […]
# Anti-PLA2 antibody content of egg yolk and serum samples were measured by an ELISA (Trott, et al., 2008). […]
# [2] = system: Single Comb White Leghorn hens; assay: Body weight change (% initial BW); format: in vivo
# Procedure: Measurement of body weight and egg production. […] Initial body weight of adult laying hens, 26- to 60-weeks of age, was reported when measured at the beginning of experiments. Data were expressed as a percentage of initial body weight (% initial BW) to determine effects of CORT on change in body weight. Eggs produced were recorded daily for each hen. Laying frequency (or egg production) of each hen during each 7 day period measured, was obtained by dividing the total number of eggs laid by 7.
# chicken = settings: feeding CORT 20-80 mg/kg diet; cited from earlier work
# laying hens = settings: cited from earlier work
# mice = settings: exogenous corticosterone; cited from earlier work
compound,measurement,setting,value
"C[C@]12C[C@H](O)[C@H]3[C@@H](CCC4=CC(=O)CC[C@@]43C)[C@@H]1CC[C@@H]2C(=O)CO [CORT, corticosterone]",serum antibody titer (Log2 titer),[1]; Example 4: CORT 30 mg/kg diet for 6 days beginning on day 1 before primary immunization,17.65 Log2 titer
same,fold higher serum antibody titer vs control hens,"[1]; Example 4: CORT 6 days, p=0.008",4.9 fold
same,effect of CORT on body weight (% initial BW) vs control-fed hens,"[2]; Example 3: CORT 5 days, p=0.27",no effect
same,body weight higher than initial body weight,"[2]; Example 3: CORT 5 days, week 1 after diet administration",11.4%
same,body weight higher than initial body weight,"[2]; Example 3: CORT 5 days, week 2",10.5%
same,body weight vs initial body weight,"[2]; Example 3: CORT 5 days, week 5 after diet administration, p=0.57",not different from initial body weight
same,body weight higher than initial body weight,"[2]; Example 4: CORT 6 days, weeks 1 to 3 after diet administration",13.3%
same,number of circulating lymphocytes in chicken blood,chicken,markedly decreased
same,egg production,laying hens; after 1 week of dietary CORT 20-40 mg/kg diet,completely suppressed
same,effect on egg production in laying hens,laying hens; dietary CORT 30 mg/kg diet for 1 week,negatively affect
same,additional time out of production after removal of CORT,laying hens; dietary CORT 20-40 mg/kg diet for 1 week,9 to 12 days
same,mouse T-dependent antibody response to sheep erythrocytes,mice,increased
